Data published in patent publication US8536221B2, “Amide derivatives as positive allosteric modulators and methods of use thereof” (AbbVie Inc., priority 2008, dated 2013).
pEC50: −log10 of the molar value.

How the values were obtained:
[1] = test system: formalin-induced nociceptive behavior in mice; experiment: Formalin-induced persistent nociceptive behavior assay; type: in vivo; details: 20-45 minutes post formalin injection, 10 mg/kg subcutaneously 10 minutes prior to formalin, versus vehicle
Method: FIG. 3 is a graphical representation of nocifensive response (licking duration) following treatment with vehicle or a PAM (Example 6) followed by exposure to formalin in mice. […] In Phase II (20-45 minutes post formalin injection) a significant reduction (55%) in licking behavior was observed, indicative of pain relief in this time period.
(iv) Formalin-Induced Persistent Nociceptive Behavior Assay
Nociception was assessed using the formalin test. The mice were placed in open plexiglass observation chambers for 30 minutes to allow them to acclimate to their surroundings; then they were removed for formalin administration. Mice were gently restrained while the dorsum of the hind paw was injected with 20 μL of 2.5% formalin into the plantar surface of the right hind paw with a 30-gauge needle. The animals were returned to the chambers and nociceptive behavior was observed immediately after formalin injection. Mirrors were placed in each chamber to enable unhindered observation. Nociceptive behavior was quantified as the time licking the injected paw for continuous 5 minutes (phase I) and 20-45 minutes (phase II), following formalin injection. Formalin-induced flinching/licking behavior was biphasic. The initial acute phase (phase I, 0-5 minutes) was followed by a relatively short quiescent period, which was then followed by a prolonged tonic response (phase II, 20-45 minutes).

[2] = target: T1, human α7 NNR (Homo sapiens, UniProt P36544); experiment: Two-electrode voltage-clamp in Xenopus laevis oocytes, potentiation of ACh-evoked α7 currents; type: cell-based; details: for degree of potentiation: 0.1 mM ACh-evoked α7 currents, normalized to reference PAM at 10 μM taken as 100%, submaximum ACh without PAM as 0%; for pEC50: potentiating 0.1 mM ACh-evoked α7 currents in oocytes
T1 construct: expressed in transfected cells; host or cells: Xenopus laevis oocytes injected with cRNA
Method: FIG. 2 is a concentration response curve obtained in the same manner for a PAM (Example 10). […] Normalized PAM potentiation is plotted on the Y-axis as a function of the concentration of the test modulator (depicted along the X-axis).
(i) Two-Electrode Voltage-Clamp in Xenopus laevis Oocytes
X. laevis oocytes were prepared for electrophysiological experiments as described in the literature (see for example, Briggs. C. A., et al., Neutropharmacology, 1995, 34: 583-590; Briggs, C. A. et al., Neutropharmacology, 1998, 37: 1095-1102). In brief, three to four lobes from ovaries of female adult X. laevis frogs were removed and defolliculated after treatment with collagenase type IA (2 mg/mL; Sigma) prepared in low-Ca^2+ Barth's solution (90 mM NaCl, 1.0 mM KCl, 0.66 mM NaNO3, 2.4 mM NaHCO3, 10 mM H-IEPES, 2.5 mM sodium pyruvate, 0.82 mM MgCl2, and 0.5% (v/v) penicillin-streptomycin solution, pH=7.55, Sigma) for about 1.5 hours to about 2 hours at about 18° C. under constant agitation to obtain isolated oocytes. The oocytes were injected with about 4 ng to about 6 ng of human α7 NNR cRNA, kept at about 18° C. in a humidified incubator in modified Barth's solution (90 mM NaCl, 1.0 mM KCl, 0.66 mM NaNO3, 2.4 mM NaHCO3, 10 mM HEPES, 2.5 mM sodium pyruvate, 0.74 mM CaCl2, 0.82 mM MgCl2, 0.5% (v/v) penicillin-streptomycin solution, pH 7.55) and used about 2 to 7 days after injection. Responses were measured by two-electrode voltage clamp using a parallel oocyte electrophysiology test station (Abbott, Abbott Park, Ill.) (see for example, Trimbull, J. D., Maslana, E. S., McKenna, D. G., Nemcek, T. A., Niforatos, W., Pan, J. Y., Parihar, A. S., Shieh, C. C., Wilkins, J. A., Briggs, C. A., and Bertrand, D. High throughput electrophysiology using a fully automated, multiplexed recording system, Receptors Channels, 2003, 9: 19-28). During recordings, the oocytes were bathed in Ba^2+—OR2 solution (90 mM NaCl, 2.5 mM KCl, 2.5 mM BaCl2, 1.0 mM MgCl2, 5.0 mM HEPES, and 0.0005 mM atropine, pH 7.4) to prevent activation of Ca^2+-dependent currents and held at −60 mV at room temperature (about 20° C.). Test compounds were given for ˜60 seconds before agonist application and subsequently in the presence of 0.1 mM ACh.

[3] = target: α7 NNRs (Homo sapiens, UniProt P36544); details: IMR-32 cells
Sequence of α7 NNRs (P36544 23-502): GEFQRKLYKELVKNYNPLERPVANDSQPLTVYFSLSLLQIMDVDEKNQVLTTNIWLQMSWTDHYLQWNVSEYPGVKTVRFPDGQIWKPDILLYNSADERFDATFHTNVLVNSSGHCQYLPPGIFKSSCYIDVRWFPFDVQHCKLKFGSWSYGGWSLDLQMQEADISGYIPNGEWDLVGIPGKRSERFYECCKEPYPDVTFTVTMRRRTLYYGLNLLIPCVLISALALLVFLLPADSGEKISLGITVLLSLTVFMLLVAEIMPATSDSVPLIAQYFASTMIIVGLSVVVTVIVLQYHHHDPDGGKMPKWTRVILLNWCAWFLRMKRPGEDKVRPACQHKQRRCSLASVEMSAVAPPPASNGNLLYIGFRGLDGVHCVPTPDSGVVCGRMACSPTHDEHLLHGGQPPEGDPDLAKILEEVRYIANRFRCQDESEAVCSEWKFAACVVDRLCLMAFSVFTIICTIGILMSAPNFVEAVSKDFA
Text: (ii) High-Throughput Calcium Flux Assays Using Cells Expressing Endogenous α7 NNRs
As such, PAMs and nicotinic acetylcholine receptor agonists can be identified by using IMR-32 cells that endogenously express various nicotinic receptors including α7 NNRs. […] Accordingly, allosteric modulator compounds described herein can be identified using a fluorescence-based throughput functional assay using cell lines such as IMR-32 neuroblastoma or primary dissociated neurons. […] Any suitable selective α7 agonist can be used.
IMR-32 neuroblastoma cells (ATCC) were grown to confluency in 162 cm^2 tissue culture flasks in minimum essential media supplemented with 10% FBS and 1 mM sodium pyruvate, 0.1 mM non-essential amino acids and 1% antibiotic-antimycotic. […] Calcium flux was measured using a calcium-3 assay kit (Molecular Devices, Sunnyvale, Calif.) or fluo-4. […] Fluorescence measurements were read simultaneously from all the wells by a Fluorometric Imaging Plate Reader (FLIPR) at an excitation wavelength of 480 nm and an emission wavelength of 520 nm. Baseline fluorescence was measured for the first 10 seconds at which 50 μL of 3× concentrations of modulator/test compounds were added to the cell plate and incubated for three to five minutes. The fluorescence intensity was captured every second for the first 1 minute followed by every 2-5 seconds for an additional two to four minutes. […]

T1 sequence (P36544 23-502): as above

O=C(NCc1ccc2[nH]ccc2c1)c1ccc(OCC(F)(F)F)nc1 [Example 6, N-(1H-indol-5-ylmethyl)-6-(2,2,2-trifluoroethoxy)nicotinamide]
reduction in licking behavior, Phase II [1]: 55%

Cn1ccc2cc(CNC(=O)c3ccc(SC(F)(F)F)cc3)ccc21 [Example 10, N-[(1-methyl-1H-indol-5-yl)methyl]-4-[(trifluoromethyl)thio]benzamide]
degree of potentiation [2]: 91% | pEC50 [2]: 6.68

Cn1ccc2ccc(CNC(=O)c3ccc(SC(F)(F)F)cc3)cc21 [Example 12, N-[(1-methyl-1H-indol-6-yl)methyl]-4-[(trifluoromethyl)thio]benzamide]
degree of potentiation [2]: 99% | pEC50 [2]: 5.96

CCN1C[C@]2(COC(=O)c3ccccc3N3C(=O)C[C@H](C)C3=O)CC[C@H](OC)[C@@]34[C@@H]5C[C@H]6[C@H](OC)[C@@H]5[C@](O)(C[C@@H]6OC)[C@@](O)([C@@H](OC)[C@H]23)[C@@H]14 [methyllycaconitine]
effect on calcium response elicited by agonist in the presence of allosteric modulator [3]: abolished the response
